18 molecules from US20230026616A1, “PYRIMIDOIMIDAZOLE COMPOUNDS USED AS DNA-PK INHIBITORS” (MEDSHINE DISCOVERY INC., priority 2019, published 2023) can be followed below.

SMILES strings stand for the structures. Where two headings read alike, the source gives them in different places.

The target in series [1] is T1, Human DNA-PK (Homo sapiens, UniProt P78527).
T1 construct: purchased Eurofins (Eurofins Pharma Discovery Service)
Put plainly: DNA-dependent protein kinase (DNA-PK) inhibitory activity screening (Eurofins, HTRF). In kind it is biochemical. The conditions noted are these: ATP: 10 μM; read-out: DNA-PK kinase inhibition IC50. Here is the method: Experimental Embodiment 1: DNA-Dependent Protein Kinase (DNA-PK) Inhibitory Activity Screening Experiment
This experiment was tested in the Eurofins
Human DNA-PK; Mg/ATP; GST-cMyc-p53; EDTA; Ser15 antibody; ATP: 10 μM.
Experimental Method (Eurofins Pharma Discovery Service):
DNA-PK (h) was incubated in assay buffer containing 50 nM GST-cMyc-p53 and Mg/ATP (according to the required concentration). The reaction was initiated by adding Mg/ATP mixture. After 30 minutes of incubation at room temperature, the reaction was stopped by adding a stop solution containing EDTA. Finally, detection buffer (containing labeled anti-GST monoclonal antibody and europium-labeled anti-Ser15 antibody against phosphorylated p53) was added. The plate was then read in time-resolved fluorescence mode, and the homogeneous time-resolved fluorescence (HTRF) signal was determined according to the formula HTRF=10000×(Em665 nm/Em620 nm).

The nature of series [2]: Pharmacokinetic evaluation (1): cassette PK in Balb/c male mice, plasma. The conditions noted are these: for C0 / clearance / Vd / AUC0-last / T1/2 / Tlast / Cmax / Tmax / AUC(0-t) / half-life: mouse plasma; for Vd: read-out: Vdss; for F: mouse, PO 2 mg/kg vs IV 0.4 mg/kg. In kind it is in vivo. The procedure:
Test compounds were mixed with 10% dimethyl sulfoxide/50% polyethylene glycol 200/40% water (compounds 1, 4, 10, 17) or 20% N,N-dimethylacetamide/80% water (compound 5), vortexed and sonicated to prepare a nearly clear solution of 0.08 mg/mL (compounds 1, 4, 10, 17) or 0.50 mg/mL (compound 5), then filtered through a microporous membrane for next step. Balb/c male mice of 18 to 20 grams were selected and administered intravenously with the candidate compound solution at a dose of 0.4 (compounds 1, 4, 10, 17) or 1 mg/kg (compound 5). Test compounds were mixed with 10% dimethyl sulfoxide/50% polyethylene glycol 200/40% water (compounds 1, 4, 10, 17) or 20%-hydroxypropyl-β-cyclodextrin (compound 5), vortexed and sonicated to prepare a nearly clear solution of 0.2 mg/mL (compounds 1, 4, 10, 17) or 1 mg/mL (compound 5), then filtered through a microporous membrane for next step. Balb/c male mice of 18 to 20 grams were selected and orally administered with the candidate compound solution at a dose of 2 (compounds 1, 4, 10, 17) or 5 mg/kg (compound 5). Whole blood was collected for a certain period of time, and plasma was prepared, then drug concentration was detected by LC-MS/MS method, and pharmacokinetic parameters were calculated by Phoenix WinNonlin software (Pharsight, USA).
IV: intravenous injection; PO: oral; C0: instantaneous […] concentration after intravenous injection; Cmax: highest plasma concentration after administration; Tmax: time required to reach peak of drug concentration after administration; T1/2: time required for the plasma drug concentration to decrease by half, Vdss: apparent volume of distribution, refers to the proportional constant of the drug dose in vivo and the blood drug concentration when the drug reaches a dynamic equilibrium in vivo. Cl: clearance rate, refers to the […] cleared from the body per unit time; Tlast: time at the last detection point; AUC0-last: area under the drug-time curve, refers to the area covered by the plasma concentration curve and the time axis; F: a measure of the speed and degree of drug absorption into the blood circulation, which is an important indicator for evaluating the degree of drug absorption.

[3] abbreviates: male, Balb/c, PO 2 mg/kg, read-out: Tmax.

Turning to `Cc1cc2ncnn2cc1Nc1ncc2c(n1)n(N1CCOCC1)c(=O)n2C` [Compound 1], the IC50 in series [1] was found to be 2 nM. In series [2] (male, Balb/c, IV 0.4 mg/kg), the C0 came out at 959 nM, the clearance was 37.7 mL/min/kg and the Vd stood at 1.51 L/kg. In series [2] (IV 0.4 mg/kg), this molecule displayed an AUC0-last of 0.426 µM·h, a T1/2 of 35.9 min and a Tlast of 4 h. In series [2] (PO 2 mg/kg), this molecule came in with an AUC0-last of 2.497 µM·h, a peak concentration (Cmax) of 1420 nM, a T1/2 of 50.5 min and a Tlast of 8 h. Moreover, the time to peak (Tmax) in series [2] (PO 2 mg/kg) was determined as 30 min. In series [2], the F worked out at 96.4%.

`Cc1cc2ncnn2cc1Nc1ncc2c(n1)n(N1C3CCC1COC3)c(=O)n2C` [Compound 4]: the IC50 in series [1] is 1 nM. In series [2] (male, Balb/c, IV 0.4 mg/kg), this molecule showed an AUC(0-t) of 0.286 µM·h, a C0 of 919 nM, a clearance of 57 mL/min/kg and a half-life of 14.4 min. Moreover, the Vd in series [2] (male, Balb/c, IV 0.4 mg/kg) amounted to 1.08 L/kg. For the same molecule, in series [2] (male, Balb/c, PO 2 mg/kg), the AUC(0-t) came out at 1.74 µM·h, the highest concentration (Cmax) was found to be 1600 nM and the half-life was 36.5 min. Further, the Tmax in series [2] (setting [3]) came out at 15 min. This molecule had a Tlast in series [2] (IV 0.4 mg/kg) of 2 h. Further, in series [2] (PO 2 mg/kg), the Tlast is reported as 4 h. The same molecule showed a F in series [2] of 123%.

Consider `Cc1cc2ncnn2cc1Nc1ncc2c(n1)n(N1CC3CC(C1)O3)c(=O)n2C` [Compound 6], for which, in series [1], the IC50 came out at 1 nM.

Turning to `Cc1cc2ncnn2cc1Nc1ncc2c(n1)n(N1CCC(F)(F)CC1)c(=O)n2C` [Compound 7], the 50% inhibitory concentration (IC50) in series [1] came to 2 nM.

As to `Cc1cc2ncnn2cc1Nc1ncc2c(n1)n(N1CCOC3(CC3)C1)c(=O)n2C` [Compound 10], the IC50 in series [1] stood at 2.5 nM. Also, in series [2] (male, Balb/c, IV 0.4 mg/kg), the area under the curve AUC(0-t) stood at 0.64 µM·h, the C0 is 1120 nM, the clearance was 25.4 mL/min/kg and the half-life was 35.5 min. Moreover, in series [2] (male, Balb/c, IV 0.4 mg/kg), the Vd was 0.883 L/kg. In series [2] (male, Balb/c, PO 2 mg/kg), this molecule showed an AUC(0-t) of 3.83 µM·h, a Cmax of 2060 nM and a half-life of 73.2 min. The Tmax in series [2] (setting [3]) was 30 min. Besides, the Tlast in series [2] (IV 0.4 mg/kg) is recorded as 4 h. In series [2] (PO 2 mg/kg), this molecule displayed a Tlast of 8 h. The F in series [2] amounted to 120%.

As for `Cc1cc2ncnn2cc1Nc1ncc2c(n1)n(N1CCC3(CC1)COC3)c(=O)n2C` [Compound 11], in series [1], the IC50 was 5 nM.

Turning to `Cc1cc2ncnn2cc1Nc1ncc2c(n1)n(N1CCC3(CCO3)CC1)c(=O)n2C` [Compound 12], the IC50 in series [1] was 4 nM.

As to `Cc1cc2ncnn2cc1Nc1ncc2c(n1)n(N1CCOC3(CCC3)C1)c(=O)n2C` [Compound 13], the half-inhibitory concentration (IC50) in series [1] stood at 2 nM.

On to `Cc1cc2ncnn2cc1Nc1ncc2c(n1)n(N1CCC(C#N)CC1)c(=O)n2C` [Compound 14], for which the IC50 in series [1] is 5 nM.

For `Cc1cc2ncnn2cc1Nc1ncc2c(n1)n(N1CC3CCCC3C1)c(=O)n2C` (stereo not drawn) [Compound 15], in series [1], the IC50 was 1 nM.

In the case of `Cc1cc2ncnn2cc1Nc1ncc2c(n1)n(N1CC3CC3C1)c(=O)n2C` (stereo not drawn) [Compound 16], the IC50 in series [1] amounted to 0.5 nM.

Regarding `Cc1cc2nncn2cc1Nc1ncc2c(n1)n(N1C3CCC1COC3)c(=O)n2C` [Compound 18], the half-inhibitory concentration (IC50) in series [1] was found to be 0.9 nM.

In the case of `Cc1cc2nccn2cc1Nc1ncc2c(n1)n(N1CC3CCC(C1)O3)c(=O)n2C` [Compound 19], in series [1], the IC50 was 0.6 nM.

As for `Cc1cc2nccn2cc1Nc1ncc2c(n1)n(N1C3CCC1COC3)c(=O)n2C` [Compound 20], the IC50 in series [1] is 0.9 nM.

With `Cc1cn2ncnc2cc1Nc1ncc2c(n1)n(N1CC3CCC(C1)O3)c(=O)n2C` [Compound 21], in series [1], the half-maximal inhibitory concentration (IC50) was 0.5 nM.

Turning to `Cc1cn2ncnc2cc1Nc1ncc2c(n1)n(N1C3CCC1COC3)c(=O)n2C` [Compound 22], the IC50 in series [1] came to 0.4 nM.

Turning to `Cc1nc2nccn2cc1Nc1ncc2c(n1)n(N1CC3CCC(C1)O3)c(=O)n2C` [Compound 23], in series [1], the IC50 was determined as 10 nM.

Turning to `Cc1nc2nccn2cc1Nc1ncc2c(n1)n(N1C3CCC1COC3)c(=O)n2C` [Compound 24], the 50% inhibitory concentration (IC50) in series [1] was 68 nM.
